According to US9175030B2, “Derivatives of avicin D and methods of making and using thereof” (priority 2012, dated 2015):

Columns and labels:
[1] = test system: MM1; assay: MTT growth inhibition, MM1; type: cell-based, human; settings: Homo sapiens, MM1 cells, 72 hrs
Experimental: (§1) The growth inhibitory effects of avicin D and oxetane derivative were measured using the MTT [3-(4,5-dimethylthiazol-2-yl)-2,5-diphenyl tetrazolium bromide] reduction assay as described in Haridas et al. (2001). Cells were cultured with varying concentrations of avicin D or oxetane in 96-well plates for 72 hrs at 37° C. At the end of 72 hrs, cells were stained with MTT for 2 hrs and then incubated with lysis buffer (20% SDS in 50% N,N-dimethylformamide) for another 6 hrs. Optical density at 570 nm was used as a measure of cell viability.
(§2) The cell lines 769P, A498, CAKI-1, and CAKI-2 are derived from primary human renal-cell cancers (RCC). A549 is a human lung adenocarcinoma epithelial cell line. B16F10 is a mouse melanoma cell line. BT474, BT 474 M1, BT549, MCF7, […], and ZR751 are breast cancer cell lines. CCRF-CEM, Jurkat, and MOLT4 are leukemia cell lines. HELA is cell line derived from cervical caner. HepG2 is a human hepatocellular liver carcinoma cell line. JeKo-1 is a mantle cell lymphoma (MCL) cell line. LnCAP is a cell line was established from a metastatic lesion of human prostatic adenocarcinoma. MM.1 and RPMI-8226 are human multiple myeloma cell lines. OVCAR3 and SKOV3 are ovarian cancer cell lines. Panc-1 is a pancreatic cancer cell line. PC3 is a prostate cancer cell line. Raji is a Burkitt's lymphoma cell line. RL is a non-Hodgkin's lymphoma cell line. […]

[2] = test system: SKOV3; assay: MTT growth inhibition, SKOV3; type: cell-based; settings: Homo sapiens, SK-OV-3, SKOV3 cells, 72 hrs
Experimental: as §1, §2

[3] = test system: ZR751; assay: MTT growth inhibition, ZR751; type: cell-based; settings: Homo sapiens, ZR-75-1, ZR751 cells, 72 hrs
Experimental: as §1, §2

[4] = test system: HEK293; assay: MTT growth inhibition, HEK293; type: cell-based, human; settings: Homo sapiens, HEK293 cells, 72 hrs
Experimental: as §1, §2

[5] = test system: PC3; assay: MTT growth inhibition, PC3; type: cell-based; settings: Homo sapiens, PC-3, PC3 cells, 72 hrs
Experimental: as §1, §2

[6] = test system: B16F10; assay: MTT growth inhibition, B16F10; type: cell-based, mouse; settings: Mus musculus, B16-F10, B16F10 cells, 72 hrs
Experimental: as §1, §2

[7] = test system: 3T3 L1; assay: MTT growth inhibition, 3T3 L1; type: cell-based; settings: Mus musculus, 3T3 L1 fibroblast cells, 72 hrs
Experimental: as §1, §2

[8] = test system: MINO; assay: MTT growth inhibition, MINO; type: cell-based; settings: Homo sapiens, MINO cells, 72 hrs
Experimental: as §1, §2

[9] = test system: Hela; assay: MTT growth inhibition, Hela; type: cell-based; settings: Homo sapiens, Hela cells, 72 hrs
Experimental: as §1, §2

[10] = test system: A549; assay: MTT growth inhibition, A549; type: cell-based, human; settings: Homo sapiens, A549 cells, 72 hrs
Experimental: as §1, §2

[11] = test system: JEKO-1; assay: MTT growth inhibition, JEKO-1; type: cell-based; settings: Homo sapiens, JEKO-1 cells, 72 hrs
Experimental: as §1, §2

[12] = test system: Nrf2; assay: Nrf2 activation, ARE-driven luciferase in Hep G2 cells; type: cell-based, human; settings: Hep G2 cells transfected with hARE-luc, luciferase activity
Experimental: Activation of Nrf2 was assessed by measuring the antioxidant response element (ARE)-mediated gene expression as described previously by Haridas et al., 2004, which is incorporated herein by reference. Briefly, ARE is a cis-acting regulatory sequence identified in the promoter region of several genes encoding phase 2 detoxification enzymes, that binds to Nrf2. Hep G2 (human hepatocarcinoma) cells were transfected with a human ARE-driven luciferase (luc) containing plasmid, hARE-luc. Following exposure to avicin D/compound 8, the luciferase activity induced in these cells was measured using a dual-luciferase assay kit (Promega) according to the manufacturer's protocol.

[13] = test system: MCF7; assay: MTT growth inhibition, MCF7; type: cell-based; settings: Homo sapiens, MCF7 cells, 72 hrs
Experimental: as §1, §2

[14] = test system: CAKI-2; assay: MTT growth inhibition, CAKI-2; type: cell-based, human; settings: Homo sapiens, CAKI-2 cells, 72 hrs
Experimental: as §1, §2

[15] = test system: BT549; assay: MTT growth inhibition, BT549; type: cell-based; settings: Homo sapiens, BT-549, BT549 cells, 72 hrs
Experimental: as §1, §2

[16] = test system: HepG2; assay: MTT growth inhibition, HepG2; type: cell-based, human; settings: Homo sapiens, HepG2 cells, 72 hrs
Experimental: as §1, §2

[17] = test system: A498; assay: MTT growth inhibition, A498; type: cell-based, human; settings: Homo sapiens, A498 cells, 72 hrs
Experimental: as §1, §2

[18] = test system: CCRF-CEM; assay: MTT growth inhibition, CCRF-CEM; type: cell-based; settings: Homo sapiens, CCRF-CEM cells, 72 hrs
Experimental: as §1, §2

[19] = test system: Raji; assay: MTT growth inhibition, Raji; type: cell-based; settings: Homo sapiens, Raji cells, 72 hrs
Experimental: as §1, §2

[20] = test system: WSU-DLCL2; assay: MTT growth inhibition, WSU-DLCL2; type: cell-based, human; settings: Homo sapiens, WSUDLCL2, WSU-DLCL2 cells, 72 hrs
Experimental: as §1, §2

[21] = test system: OVCAR3; assay: MTT growth inhibition, OVCAR3; type: cell-based; settings: Homo sapiens, OVCAR-3, OVCAR3 cells, 72 hrs
Experimental: as §1, §2

[22] = test system: MOLT4; assay: MTT growth inhibition, MOLT4; type: cell-based; settings: Homo sapiens, MOLT-4, MOLT4 cells, 72 hrs
Experimental: as §1, §2

[23] = test system: U266; assay: MTT growth inhibition, U266; type: cell-based; settings: Homo sapiens, U-266, U266 cells, 72 hrs
Experimental: as §1, §2

[24] = test system: Jurkat; assay: MTT growth inhibition, Jurkat; type: cell-based, human; settings: Homo sapiens, Jurkat cells, 72 hrs (Table 5)
Experimental: as §1, §2

[25] = test system: RPMI 8226; assay: MTT growth inhibition, RPMI 8226; type: cell-based, human; settings: Homo sapiens, RPMI 8226 cells, 72 hrs
Experimental: as §1, §2

[26] = test system: RL; assay: MTT growth inhibition, RL; type: cell-based; settings: Homo sapiens, RL cells, 72 hrs
Experimental: as §1, §2

[27] = test system: GM0131; assay: MTT growth inhibition, GM0131; type: cell-based; settings: GM0131 wild type human fibroblast cells, 72 hrs
Experimental: as §1, §2

[28] = test system: Jurkat (human T-cell leukemia) cells; assay: Reduction in cell viability, Jurkat cells (Table 6); type: cell-based; settings: Homo sapiens, 50% reduction in cell viability
Source text: The IC50 values indicate the concentrations of avicin D/compound 8 required to induce a 50% reduction in call viability. These studies were done in Jurkat (human T-cell leukemia) cells and have been described previously in Haridas et al., 2001, which is incorporated herein by reference.

[29] = test system: HS27; assay: MTT growth inhibition, HS27; type: cell-based; settings: HS27 human foreskin fibroblast cells, 72 hrs
Experimental: as §1, §2

[30] = test system: LnCAP; assay: MTT growth inhibition, LnCAP; type: cell-based, human; settings: Homo sapiens, LnCAP cells, 72 hrs
Experimental: as §1, §2

[31] = test system: 769P; assay: MTT growth inhibition, 769P; type: cell-based, human; settings: Homo sapiens, 769P cells, 72 hrs
Experimental: as §1, §2

[32] = test system: BT474; assay: MTT growth inhibition, BT474; type: cell-based; settings: Homo sapiens, BT-474, BT474 cells, 72 hrs
Experimental: as §1, §2

[33] = test system: CAKI-1; assay: MTT growth inhibition, CAKI-1; type: cell-based, human; settings: Homo sapiens, CAKI-1 cells, 72 hrs
Experimental: as §1, §2

[34] = test system: BT474 M1; assay: MTT growth inhibition, BT474 M1; type: cell-based; settings: Homo sapiens, BT474M1, BT474 M1 cells, 72 hrs
Experimental: as §1, §2

[35] = test system: Panc-1; assay: MTT growth inhibition, Panc-1; type: cell-based; settings: Homo sapiens, Panc-1 cells, 72 hrs
Experimental: as §1, §2

[36] = test system: U2OS; assay: MTT growth inhibition, U2OS; type: cell-based, human; settings: Homo sapiens, U2OS cells, 72 hrs
Experimental: as §1, §2

`C=CC(C)(O)CCC1OCC1C(=O)O[C@@H]1C(C)O[C@@H](O[C@](C)(C=C)CC/C=C(\CO)C(=O)O[C@H]2C[C@@]3(C(=O)O[C@@H]4OC(CO)[C@@H](O)C(O)C4O[C@@H]4OC(C)[C@H](O[C@@H]5O[C@@H](CO)[C@H](O)[C@@H]5O)C(O[C@@H]5OC(CO)[C@@H](O)C(O)C5O)C4O)C(CC2(C)C)C2=CCC4[C@@]5(C)CC[C@H](O[C@@H]6OC(CO[C@@H]7OC(C)[C@H](O)C(O)C7O[C@@H]7OC[C@@H](O)C(O)C7O)[C@@H](O)C(O)C6NC(C)=O)C(C)(C)C5CC[C@@]4(C)[C@]2(C)C[C@H]3O)C(O)C1O` (stereo partly drawn) [Compound 8] showed an IC50 [1] of 30 nM, an IC50 [2] of 420 nM and an IC50 [3] of 340 nM. The IC50 [4] was 6.8 µM, the IC50 [5] was 190 nM and the IC50 [6] was 140 nM. For the same compound, the IC50 [7] was 800 nM, the IC50 [8] was 60 nM and the IC50 [9] was 1870 nM. For the same compound, the IC50 [10] was 1200 nM, the IC50 [11] was 160 nM and the “Fold Nrf2 activation” value [12] was 0.98. For the same compound, the IC50 [13] was 2600 nM, the IC50 [14] was 490 nM and the IC50 [15] was 1400 nM. For the same compound, the IC50 [16] was 310 nM, the IC50 [17] was 220 nM and the IC50 [18] was 630 nM. The IC50 [19] was 620 nM, the IC50 [20] was 140 nM and the IC50 [21] was 210 nM. The IC50 [22] was 200 nM, the IC50 [23] was 80 nM and the IC50 [24] was 90 nM. The IC50 [25] was 160 nM, the IC50 [26] was 80 nM and the IC50 [27] was 12 µM. For the same compound, the IC50 [28] was 40 nM, the IC50 [29] was 2500 nM and the IC50 [30] was 190 nM. It also gave an IC50 [31] of 150 nM, an IC50 [32] of 900 nM and an IC50 [33] of 280 nM. It also gave an IC50 [34] of 700 nM, an IC50 [35] of 310 nM and an IC50 [36] of 1200 nM.
